Assay results: patent US8703698B2, “Compositions and methods for treating atherosclerosis” (The University of Chicago, priority 2003, dated 2014)

What was measured:
[1] = test system: THP-1 cells; experiment: Cholesterol efflux from cholesterol-laden human THP-1 cells; assay type: cell-based; details: liposomal formulations; cholesterol-laden THP-1 cells differentiated with phorbol myristate acetate
Protocol: These monocytes were differentiated into macrophages with phorbol myristate acetate (100 nM). In these experiments, cholesterol-laden human THP-1 cells were exposed to liposomal formulations comprising a peptide corresponding to amino acids 1-20 of murine SAA2.1 (SEQ ID NO:1), a peptide corresponding to amino acids 74-103 of murine SAA2.1 (SEQ ID NO:4), a peptide corresponding to amino acids 1-20 of murine SAA1.1 plus an arginine at the N-terminus (SEQ ID NO:7), or a peptide corresponding to amino acids 1-20 of murine SAA2.1 (SEQ ID NO:1) and a peptide corresponding to amino acids 74-103 (SEQ ID NO:4) of murine SAA2.1. Results from these experiments are depicted in FIG. 4. […] Studies were carried out to determine whether murine SAA2.1 increases cholesterol export from a human derived monocytic cell line, THP-1 (obtained from American Type Culture Collection, Manassas, Va.; ATCC#TIB-202). Human monocytes were cultured in T-75 flasks with 30 ml RPMI 1640 medium containing 2 mM L-glutamine, 4.5 g/L glucose, 10 mM HEPES, 1.0 mM […] and supplemented with 0.05 mM 2-mercaptoethanol and 10% fetal bovine serum. Subsequently, five million cells were placed in each well of a 6-well tissue culture plate. The monocytes were differentiated into macrophages by treatment with phorbol myristate acetate (100 nM). THP-1 macrophages were enriched with cholesterol by incubating with red blood cells membrane fragments (175 μg as cholesterol) that had been previously labelled with 0.5 μCi/mL[^3H]-cholesterol at 37° C. for 6 hours in 0.2% bovine serum albumin, followed by an overnight equilibration period. Cells were washed four times with PBS/BSA prior to efflux studies. Cells were then incubated at 37° C. with 2 mL RPMI-BSA containing 5% LPDS and 50 μg/mL of either native HDL, SAA-HDL, liposomes containing 2 μmoles of apoA-I, SAA1.1 or 2.1, or liposomes containing 0.5 μmoles synthetic peptides corresponding to amino acid residues 1-20 (SEQ ID NO:1), 21-50 (SEQ ID NO:2), 51-80 (SEQ ID NO:3) or 74-103 (SEQ ID NO:4) of murine SAA2.1. The efflux media were collected at 0, 1, 2, 4, 8, 16 and 24 hours, centrifuged to remove cell debris, and then used to measure the exported counts. […] A portion of the cells was lysed in 0.1N NaOH to estimate both the remaining radioactivity and the cellular protein content. Cellular lipids were extracted from the remaining portion of the cells and analyzed by thin-layer chromatography as described by Mendez et al. (J. Clin. Invest. 1994 94:1698-1705) and Oram et al. (Arterioscler. Thromb. 1991 11:403-414). The radioactivity in appropriate spots was measured to determine total cellular cholesterol counts. Efflux of radioactive label to the medium was calculated as the percentage of total counts (cell+medium counts) in each well.

[2] = test system: J774 macrophages; experiment: [3H]cholesterol efflux from cholesterol-loaded J774 macrophages in tissue culture; assay type: cell-based, mouse; details: for cholesterol efflux compared to equimolar liposomes containing full length murine SAA2.1 protein (FIG. 10): cholesterol-laden J774 cells, equimolar concentrations; for cholesterol efflux as compared to controls (FIGS. 3A and 3B) / dose-response of cholesterol efflux (FIGS. 3A and 3B): liposomes; for cholesterol efflux as compared to controls (FIGS. 3A and 3B): peptide at 1 μM (alone printed 1 μl), cholesterol-laden murine macrophages; for dose-response of cholesterol efflux (FIGS. 3A and 3B): 0.05, 0.1, 0.5, 1.0, 2.5 and 5.0 μM; for total cellular [3H]cholesterol released into the medium: pre-incubated 4 hours with liposomes containing 0.5 μM peptide, then cultured in presence of HDL (50 μg/mL)
[3] = test system: ApoE knockout mice; experiment: Prevention of aortic lesions in ApoE knockout mice on high fat diet; assay type: in vivo; details: liposomes intravenously once every four days, five doses at 6 mg/kg; 20 days high fat diet
Excerpt: In prevention experiments, ApoE knockout mice were placed on a high fat diet and at the same time received once every four days liposomes containing a peptide corresponding to amino acids 1-20 of murine SAA2.1 (SEQ ID NO:1; Group 2 of FIG. 8A and Group hf+p1 of FIG. 8B), liposomes containing a peptide corresponding to amino acids 74-103 of murine SAA2.1 (SEQ ID NO:4; Group 4 of FIG. 8A and Group hf+p4 of FIG. 8B) or liposomes containing a peptide corresponding to amino acids 1-20 of murine SAA2.1 and a peptide corresponding to amino acids 74-103 of murine SAA2.1 (SEQ ID NO:1+SEQ ID NO:4; Group 5 of FIG. 8A and Group hf+p(1+4) of FIG. 8B). The control group received high fat diet alone with no liposomes (Group 1 of FIG. 8A and Group high fat of FIG. 8B). An additional group was placed on a normal mouse chow diet (Group 3 of FIG. 8A and Group low fat of FIG. 8B). […]
To assess the effects of the peptides on aortic atherosclerosis, at the termination of the experiment, the aorta was removed from the animals and opened longitudinally. The endothelial surface was stained with Oil Red O and the area occupied by lipid was measured by image analysis. Furthermore, histological sections of aorta were prepared for microscopic analysis and total lipids were isolated to measure the quantity of cholesterol per weight of tissue. […]

[4] = test system: hepatic, macrophage, and pancreatic cholesterol esterase; details: Lindhorst 1997; Ely 2001; Tam 2002; cited from earlier work

Molecule | cholesterol efflux, time course (FIG. 4) [1] | cholesterol efflux compared to equimolar liposomes containing full length murine SAA2.1 protein (FIG. 10) [2] | cholesterol efflux as compared to controls (FIGS. 3A and 3B) [2] | dose-response of cholesterol efflux (FIGS. 3A and 3B) [2] | total cellular [3H]cholesterol released into the medium [2] [%] | rate of [3H]cholesterol efflux into medium containing HDL ([2]; pre-incubation with liposomes containing 0.5 μM peptide, HDL as acceptor) | aortic lesions, area stained with Oil Red O, versus control animals (FIGS. 8A and 8B) [3] | cholesterol esterase activities in vitro [4]
DTIADQEANRHGRSGKDPNYYRPPGLPDKY [SEQ ID NO:4, synthetic peptide, residues 74-103 of murine SAA2.1] | demonstrated to increase cholesterol efflux | statistically significant greater cholesterol efflux | approximately 200% | increased with increasing amounts of each peptide alone | 46.7 ± 3.1 | significant increase in the rate | showed decreased aortic lesions | 
GFFSFVHEAFQGAGDMWRAY [SEQ ID NO:1, synthetic peptide, residues 1-20 of murine SAA2.1] | demonstrated to increase cholesterol efflux | statistically significant greater cholesterol efflux | approximately 200% | increased with increasing amounts of each peptide alone | 60.6 ± 3.6 |  | showed decreased aortic lesions | 
GFFSFVHEAFQGAGDMWRAYTDMKEANWKNSDKYFHARGNYDAAQRGPGGVWAAEKISD GREAFQEFFGRGHEDTIADQEANRHGRSGKDPNYYRPPGLPDKY (protein, listed as Mus musculis, full length murine serum amyloid A isoform 2.1 purified from acute phase plasma) GFFSFVHEAFQGAGDMWRAYTDMKEANWKNSDKYFHARGNYDAAQRGPGGVWAAEKISDGREAFQEFFGRGHEDTIADQEANRHGRSGKDPNYYRPPGLPDKY |  |  |  |  |  |  |  | stimulate hepatic, macrophage, and pancreatic cholesterol esterase activities in vitro
